Key:
[1] = Dynamic vapor sorption (DVS); assay type: physicochemical; conditions: for hygroscopicity by DVS: 3 cycles
Experimental: (§1) DVS samples (5-10 mg) are analyzed using a TA Instruments Q5000 SA powerful dynamic vapor sorption analyzer. The relative humidity is started at about 50% and adjusted to between about 0-90% humidity with about a 10% increase or decrease in humidity for each step for 3 cycles. The weight of the sample is continuously monitored and recorded.

[2] = XRPD of the sample after DVS; assay type: physicochemical
Experimental: (§2) XRPD patterns are obtained using a Bruker D8 Advance equipped with a Cu Kα radiation source (λ=1.54 Å), a 9-position sample holder and a LYNXEYE super speed detector. Samples are placed on zero-background, silicon plate holders for analysis. One skilled in the art would recognize that the ° 20 values and the relative intensity values are generated by performing a peak search on the measured data and the d-spacing values are calculated by the instrument from the ° 20 values using Bragg's equation. One skilled in the art would further recognize that the relative intensity for the measured peaks may vary as a result of sample preparation, orientation and instrument used, for example.
as §1

[3] = XRPD after storage at about 40° C. under vacuum for about two weeks; assay type: physicochemical
Experimental: as §2

[4] = target: T1, PI3K-delta (Homo sapiens, UniProt O00329); conditions: Phase 2 trial, relapsed/refractory marginal zone lymphoma; cited from earlier work
T1 construct: host or cells: patients (clinical trial)
T1 sequence (O00329 whole entry): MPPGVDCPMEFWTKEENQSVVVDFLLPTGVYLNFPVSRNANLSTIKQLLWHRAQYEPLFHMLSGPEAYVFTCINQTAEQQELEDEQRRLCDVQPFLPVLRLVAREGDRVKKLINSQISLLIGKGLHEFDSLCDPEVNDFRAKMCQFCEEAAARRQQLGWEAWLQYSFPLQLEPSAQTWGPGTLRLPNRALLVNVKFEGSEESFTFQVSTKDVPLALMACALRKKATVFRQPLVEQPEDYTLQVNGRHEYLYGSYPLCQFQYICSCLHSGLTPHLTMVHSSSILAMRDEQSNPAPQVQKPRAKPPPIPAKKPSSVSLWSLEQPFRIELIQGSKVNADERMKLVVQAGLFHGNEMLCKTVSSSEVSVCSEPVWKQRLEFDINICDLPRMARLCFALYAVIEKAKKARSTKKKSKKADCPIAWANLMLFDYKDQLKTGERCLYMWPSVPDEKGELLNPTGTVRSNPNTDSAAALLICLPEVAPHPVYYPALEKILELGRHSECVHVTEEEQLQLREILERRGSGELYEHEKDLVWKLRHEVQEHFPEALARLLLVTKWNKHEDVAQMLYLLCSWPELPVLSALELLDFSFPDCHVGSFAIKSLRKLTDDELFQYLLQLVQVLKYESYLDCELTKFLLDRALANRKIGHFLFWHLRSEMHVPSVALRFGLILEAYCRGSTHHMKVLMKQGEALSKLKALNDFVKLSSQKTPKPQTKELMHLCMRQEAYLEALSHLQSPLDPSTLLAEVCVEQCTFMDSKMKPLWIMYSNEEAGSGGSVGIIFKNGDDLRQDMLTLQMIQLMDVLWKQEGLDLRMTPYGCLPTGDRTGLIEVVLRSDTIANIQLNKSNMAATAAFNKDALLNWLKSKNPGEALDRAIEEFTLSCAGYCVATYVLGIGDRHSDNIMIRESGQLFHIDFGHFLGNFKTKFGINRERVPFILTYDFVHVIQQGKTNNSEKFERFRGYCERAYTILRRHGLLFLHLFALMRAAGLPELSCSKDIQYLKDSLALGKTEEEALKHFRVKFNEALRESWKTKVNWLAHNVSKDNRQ
T1 sequence (P27986 whole entry partner): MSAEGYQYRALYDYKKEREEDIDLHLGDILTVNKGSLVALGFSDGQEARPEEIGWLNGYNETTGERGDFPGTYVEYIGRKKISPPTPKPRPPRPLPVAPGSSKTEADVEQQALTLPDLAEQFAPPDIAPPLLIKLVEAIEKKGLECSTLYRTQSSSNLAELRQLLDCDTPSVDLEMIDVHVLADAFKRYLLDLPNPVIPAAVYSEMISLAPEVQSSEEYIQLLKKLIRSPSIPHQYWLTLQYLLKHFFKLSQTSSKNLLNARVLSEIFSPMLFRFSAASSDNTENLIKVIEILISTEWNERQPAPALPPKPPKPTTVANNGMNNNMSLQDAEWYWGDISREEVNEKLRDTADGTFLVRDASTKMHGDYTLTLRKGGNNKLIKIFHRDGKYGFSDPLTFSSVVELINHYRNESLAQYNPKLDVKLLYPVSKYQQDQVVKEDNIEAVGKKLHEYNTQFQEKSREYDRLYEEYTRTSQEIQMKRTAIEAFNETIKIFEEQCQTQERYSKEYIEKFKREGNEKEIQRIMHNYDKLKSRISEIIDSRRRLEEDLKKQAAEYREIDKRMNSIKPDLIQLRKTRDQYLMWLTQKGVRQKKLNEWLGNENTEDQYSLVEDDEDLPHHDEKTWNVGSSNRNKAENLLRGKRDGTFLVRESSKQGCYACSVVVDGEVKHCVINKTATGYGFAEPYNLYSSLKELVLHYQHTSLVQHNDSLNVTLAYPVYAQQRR

Row | Compound | hygroscopicity by DVS [1] | weight change between about 0-90% relative humidity [1] [%] | weight change in the sample over three cycles [1] [%] | solid form by XRPD after DVS [2] | solid form by XRPD after storage [3] | PI3K-delta inhibition in patients [4] | tolerability in patients [4]
1 | CC(C)Oc1ccc(-c2nn([C@@H](C)c3oc4ccc(F)cc4c(=O)c3-c3cccc(F)c3)c3ncnc(N)c23)cc1F [Example 1, amorphous umbralisib monotosylate] | hygroscopic | ~4 | < 1 | still amorphous |  |  | 
2 | CC(C)Oc1ccc(-c2nn([C@@H](C)c3oc4ccc(F)cc4c(=O)c3-c3cccc(F)c3)c3ncnc(N)c23)cc1F [Example 2, amorphous umbralisib monotosylate] | hygroscopic | ~4 | ~0.5 | still amorphous | still amorphous |  | 
3 | CC(C)Oc1ccc(-c2nn([C@@H](C)c3oc4ccc(F)cc4c(=O)c3-c3cccc(F)c3)c3ncnc(N)c23)cc1F [umbralisib, (S)-2-(1-(4-amino-3-(3-fluoro-4-isopropoxyphenyl)-1H-pyrazolo[3,4-d]pyrimidin-1-yl)ethyl)-6-fluoro-3-(3-fluorophenyl)-4H-chromen-4-one] |  |  |  |  |  | effective PI3K-delta inhibition | well-tolerated
